# Measured values: patent EP0140848A1, “A pharmaceutical composition containing azo-bis-salicylic acid or a salt thereof, and a method for the treatment of inflammatory conditions in the intestines” (priority 1983, dated 1985)
# Key:
# tuberculosis = details: according to Ind. J. Med. Res. 40 (1952), p. 4-5, and Ind. J. Pharm. 13 (1951), p. 3-5; cited from earlier work
# [1] = Toxicity (general statement, no method described); details: no data or method given
Structure (SMILES),activity against tuberculosis (tuberculosis),toxicity [1]
"O=C(O)c1ccc(N=Nc2ccc(C(=O)O)c(O)c2)cc1O [4,4'-azo-bis-salicylic acid]",inactive,remarkably low
"CC(=O)Nc1ccc(C(=O)O)c(O)c1 [Ac-PAS, N-acetyl-p-aminosalicylic acid]",,remarkably low
"Nc1ccc(C(=O)O)c(O)c1 [PAS, 4-aminosalicylic acid, reference compound]",,remarkably low
